Results reported in US12378248B2 (The United States of America, as represented by the …, priority 2018, dated 2025).
Residue numbers refer to the chain shown, from its start. Read-outs that look alike come from different tables or passages of the source.

How the values were obtained:
[1] = molecular target: T1, mA1AR (Mus musculus, UniProt Q60612); test: Adenosine receptor binding, mA1AR; details: for Binding selectivity for mA1AR: compared to mA3AR; for Ki: (m), read-out: A1AR % inhibition or Ki (converted)
T1 sequence (Q60612 1-326): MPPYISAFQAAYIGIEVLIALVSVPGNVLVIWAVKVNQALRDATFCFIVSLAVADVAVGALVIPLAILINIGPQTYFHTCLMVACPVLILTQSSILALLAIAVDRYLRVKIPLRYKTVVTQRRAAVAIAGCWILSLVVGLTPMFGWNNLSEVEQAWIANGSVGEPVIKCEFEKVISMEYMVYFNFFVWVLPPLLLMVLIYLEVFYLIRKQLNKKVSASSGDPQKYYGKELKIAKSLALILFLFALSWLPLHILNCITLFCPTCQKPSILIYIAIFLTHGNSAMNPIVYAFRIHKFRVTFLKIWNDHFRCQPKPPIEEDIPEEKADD

[2] = molecular target: T1, mA1AR; test: Guanine nucleotide ([35S]GTPγS) binding assay; type: biochemical
Description: (§1) cLogP was calculated using ChemDraw Professional, v. 16.0. Binding selectivity for mA1Ar is expressed in terms of fold, compared to mA3AR (Data from Table 1).

[3] = molecular target: T2, mA3AR (Mus musculus, UniProt Q61618); test: Guanine nucleotide ([35S]GTPγS) binding assay; type: biochemical; details: effect of 10 μM test compound as % of 10 μM 16
T2 sequence (Q61618 1-319): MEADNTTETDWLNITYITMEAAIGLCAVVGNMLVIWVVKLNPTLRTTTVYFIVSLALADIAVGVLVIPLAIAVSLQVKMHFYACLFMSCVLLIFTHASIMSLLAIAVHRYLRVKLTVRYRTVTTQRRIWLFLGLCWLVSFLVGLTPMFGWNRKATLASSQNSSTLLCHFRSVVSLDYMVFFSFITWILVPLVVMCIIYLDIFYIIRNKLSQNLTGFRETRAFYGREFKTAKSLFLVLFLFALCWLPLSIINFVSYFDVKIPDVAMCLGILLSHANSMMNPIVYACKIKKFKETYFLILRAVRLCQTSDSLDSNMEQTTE
Description: as §1

[4] = test system: wild-type C57BL/6J mice; test: Hypothermia (Tb by telemetry) after ip dosing; type: in vivo, mouse; details: 3 mg/kg ip; average from dosing to 60 min; mean±SD
Description: (§2) Compounds were dosed ip. Tb and activity were measured by telemetry and the averages from dosing to 60 min were calculated. […] Data are for the highest dose used and are mean±SD from 3 to 22 mice/group (usually 5-7). P values are unpaired t-Test vs vehicle-treated controls assayed simultaneously. Vehicle data are mean±SD from all (n=83) vehicle treated mice.

[5] = test system: wild-type C57BL/6J mice; test: Locomotor activity by telemetry after ip dosing; type: in vivo, mouse; details: 3 mg/kg ip; average from dosing to 60 min; mean±SD
Description: as §2

[6] = Plasma protein binding at 10 μM; type: in vitro ADME, human; details: unbound percent ± standard deviation
Description: (§3) Plasma protein binding in human plasma, mouse plasma, and rat plasma was determined. Verapamil and warfarin served as positive controls. The results are expressed as unbound percent±standard deviation.

[7] = Plasma protein binding at 10 μM; type: in vitro ADME, mouse; details: unbound percent ± standard deviation
Description: as §3

[8] = Plasma protein binding at 10 μM; type: in vitro ADME, rat; details: unbound percent ± standard deviation
Description: as §3

[9] = test system: mice; test: Tail suspension test, immobility time; type: in vivo, mouse; details: 0.3 mg/kg i.p., 1 hour after administration, 6 min suspension
Description: 1 hour after administration of compounds, the mice were individually suspended by their tails for 6 minutes, and the average amount of time the mice were immobile was determined. […]

[10] = Stability in simulated gastric fluid; type: physicochemical; details: pH 1.60, 37° C., after 120 min
[11] = molecular target: T3, rA1AR (Rattus norvegicus, UniProt P25099); test: Adenosine receptor binding, rA1AR; details: (r), read-out: A1AR % inhibition or Ki (converted)
T3 sequence (P25099 1-326): T1 sequence (Q60612 1-326) with E151V, A155D, I157R, E316D, I319L, D325E

[12] = molecular target: T4, hA2AAR (Homo sapiens, UniProt P29274); test: Radioligand binding in membranes of HEK293 cells expressing hA2AAR; details: read-out: A2AAR % inhibition; for Ki: (h), values without % sign (Ki)
T4 construct: expressed in transfected cells; host or cells: HEK293

[13] = molecular target: rA2AAR (Rattus norvegicus, UniProt P30543); test: Adenosine receptor binding, rA2AAR; details: (r); values without % sign (Ki); read-out: A2AAR % inhibition (converted)
[14] = molecular target: T5, hA3AR (Homo sapiens, UniProt P0DMS8); test: Radioligand binding in membranes of CHO cells expressing hA3AR
T5 construct: expressed in transfected cells; host or cells: CHO
T5 sequence (P0DMS8 1-318): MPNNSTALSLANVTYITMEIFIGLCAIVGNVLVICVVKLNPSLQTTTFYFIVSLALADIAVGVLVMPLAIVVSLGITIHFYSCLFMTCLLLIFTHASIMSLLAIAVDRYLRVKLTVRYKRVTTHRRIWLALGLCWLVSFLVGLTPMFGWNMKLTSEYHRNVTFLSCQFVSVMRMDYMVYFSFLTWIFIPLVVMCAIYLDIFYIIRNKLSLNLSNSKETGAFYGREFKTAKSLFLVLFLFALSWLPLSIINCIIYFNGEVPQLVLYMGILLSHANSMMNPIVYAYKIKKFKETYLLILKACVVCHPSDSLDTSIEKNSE

[15] = molecular target: T2, mA3AR; test: Adenosine receptor binding, mA3AR; details: (m); Ki; read-out: A3AR % inhibition or Ki (converted)
[16] = molecular target: rA3AR (Rattus norvegicus, UniProt P28647); test: Adenosine receptor binding, rA3AR; details: (r), read-out: A3AR % inhibition or Ki (converted)
[17] = molecular target: T6, hA1AR (Homo sapiens, UniProt P30542); test: Radioligand binding in membranes of CHO cells expressing hA1AR, [3H]N6-R-phenylisopropyladenosine; details: (h); Ki; read-out: A1AR % inhibition or Ki
T6 construct: expressed in transfected cells; host or cells: CHO
T6 sequence (P30542 1-326): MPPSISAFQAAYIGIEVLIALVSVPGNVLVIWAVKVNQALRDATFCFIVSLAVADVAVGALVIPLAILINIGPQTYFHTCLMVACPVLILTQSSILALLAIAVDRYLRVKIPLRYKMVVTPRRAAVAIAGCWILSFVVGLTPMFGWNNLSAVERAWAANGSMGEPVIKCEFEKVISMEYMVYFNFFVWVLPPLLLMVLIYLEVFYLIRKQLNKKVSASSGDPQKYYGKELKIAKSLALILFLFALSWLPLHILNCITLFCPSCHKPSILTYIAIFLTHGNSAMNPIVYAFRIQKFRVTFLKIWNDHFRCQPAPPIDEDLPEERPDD

[18] = molecular target: dopamine transporter (DAT) (Homo sapiens, UniProt Q01959); test: Off-target interaction determined by the PDSP; type: binding; details: read-out: Off-target, receptor (h, unless noted) (Ki, μM): DAT
[19] = molecular target: norepinephrine transporter (NET) (Homo sapiens, UniProt P23975); test: Off-target interaction determined by the PDSP; type: binding; details: read-out: Off-target, receptor (h, unless noted) (Ki, μM): NET
[20] = molecular target: sigma receptor σ2 (UniProt Q5BJF2); test: Off-target interaction determined by the PDSP; type: binding, human; details: read-out: Off-target, receptor (h, unless noted) (Ki, μM): σ2
[21] = molecular target: histamine receptor H1 (Homo sapiens, UniProt P35367); test: Off-target interaction determined by the PDSP; type: binding; details: read-out: Off-target, receptor (h, unless noted) (Ki, μM): H1
[22] = molecular target: sigma receptor σ1 (Homo sapiens, UniProt Q99720); test: Off-target interaction determined by the PDSP; type: binding; details: read-out: Off-target, receptor (h, unless noted) (Ki, μM): σ1
[23] = molecular target: T7, serotonin receptor 5HT2C (Homo sapiens, UniProt P28335); test: Off-target interaction determined by the PDSP; type: binding; details: read-out: Off-target, receptor (h, unless noted) (Ki, μM): 5HT2C
T7 sequence (P28335 33-458): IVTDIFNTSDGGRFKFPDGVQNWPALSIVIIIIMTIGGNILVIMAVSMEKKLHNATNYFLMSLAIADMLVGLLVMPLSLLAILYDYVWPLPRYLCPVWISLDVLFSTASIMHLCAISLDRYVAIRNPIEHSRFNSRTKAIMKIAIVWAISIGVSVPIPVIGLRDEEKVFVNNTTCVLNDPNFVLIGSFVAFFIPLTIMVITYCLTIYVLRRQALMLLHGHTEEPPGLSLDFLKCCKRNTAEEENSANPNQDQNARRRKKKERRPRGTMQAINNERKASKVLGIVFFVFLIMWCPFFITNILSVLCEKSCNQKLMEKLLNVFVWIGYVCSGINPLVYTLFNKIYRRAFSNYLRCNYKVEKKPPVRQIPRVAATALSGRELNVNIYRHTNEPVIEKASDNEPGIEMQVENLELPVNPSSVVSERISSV

[24] = molecular target: rat brain benzodiazepine receptors (BZP); test: Off-target interaction determined by the PDSP; type: binding; details: read-out: Off-target, receptor (h, unless noted) (Ki, μM): BZP (r)
[25] = molecular target: serotonin receptor 5HT2B (Homo sapiens, UniProt P41595); test: Off-target interaction determined by the PDSP; type: binding; details: read-out: Off-target, receptor (h, unless noted) (Ki, μM): 5HT2B
serotonin receptor 5HT2B, sequence (P41595 whole entry): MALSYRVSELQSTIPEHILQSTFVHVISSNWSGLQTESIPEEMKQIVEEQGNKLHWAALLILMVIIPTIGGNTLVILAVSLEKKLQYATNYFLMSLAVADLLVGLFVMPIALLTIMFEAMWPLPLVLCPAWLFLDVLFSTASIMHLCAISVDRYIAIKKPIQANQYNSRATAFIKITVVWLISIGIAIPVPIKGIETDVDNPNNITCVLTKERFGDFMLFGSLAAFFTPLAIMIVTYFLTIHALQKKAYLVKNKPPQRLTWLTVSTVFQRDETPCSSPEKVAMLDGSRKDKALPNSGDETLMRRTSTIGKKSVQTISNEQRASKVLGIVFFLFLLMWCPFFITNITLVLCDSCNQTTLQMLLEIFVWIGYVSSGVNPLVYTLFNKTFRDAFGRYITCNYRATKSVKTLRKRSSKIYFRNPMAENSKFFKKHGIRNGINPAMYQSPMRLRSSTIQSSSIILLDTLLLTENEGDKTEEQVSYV

T4 sequence (P29274 whole entry): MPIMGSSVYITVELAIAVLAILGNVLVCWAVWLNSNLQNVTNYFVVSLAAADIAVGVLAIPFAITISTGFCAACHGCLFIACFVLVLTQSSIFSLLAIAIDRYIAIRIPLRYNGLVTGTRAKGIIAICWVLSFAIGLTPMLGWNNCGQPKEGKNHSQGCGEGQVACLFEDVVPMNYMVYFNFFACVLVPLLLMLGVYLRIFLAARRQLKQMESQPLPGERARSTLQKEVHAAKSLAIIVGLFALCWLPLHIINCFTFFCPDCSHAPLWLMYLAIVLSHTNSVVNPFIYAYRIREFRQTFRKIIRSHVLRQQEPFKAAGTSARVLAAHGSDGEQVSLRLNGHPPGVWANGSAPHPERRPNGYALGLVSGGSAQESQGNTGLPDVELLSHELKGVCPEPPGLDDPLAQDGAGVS
rA2AAR, sequence (P30543 whole entry): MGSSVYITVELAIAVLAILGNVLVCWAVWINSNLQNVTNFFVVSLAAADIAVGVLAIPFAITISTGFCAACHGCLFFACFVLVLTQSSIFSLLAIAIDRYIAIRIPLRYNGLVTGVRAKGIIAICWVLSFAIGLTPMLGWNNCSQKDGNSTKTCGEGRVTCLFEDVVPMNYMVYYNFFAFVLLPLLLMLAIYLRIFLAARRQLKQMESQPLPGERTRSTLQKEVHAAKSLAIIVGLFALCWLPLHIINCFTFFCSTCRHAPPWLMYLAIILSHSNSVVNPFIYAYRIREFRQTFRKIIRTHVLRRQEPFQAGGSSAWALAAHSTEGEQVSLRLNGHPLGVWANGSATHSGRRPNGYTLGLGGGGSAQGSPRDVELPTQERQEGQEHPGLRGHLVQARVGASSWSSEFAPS
dopamine transporter (DAT), sequence (Q01959 whole entry): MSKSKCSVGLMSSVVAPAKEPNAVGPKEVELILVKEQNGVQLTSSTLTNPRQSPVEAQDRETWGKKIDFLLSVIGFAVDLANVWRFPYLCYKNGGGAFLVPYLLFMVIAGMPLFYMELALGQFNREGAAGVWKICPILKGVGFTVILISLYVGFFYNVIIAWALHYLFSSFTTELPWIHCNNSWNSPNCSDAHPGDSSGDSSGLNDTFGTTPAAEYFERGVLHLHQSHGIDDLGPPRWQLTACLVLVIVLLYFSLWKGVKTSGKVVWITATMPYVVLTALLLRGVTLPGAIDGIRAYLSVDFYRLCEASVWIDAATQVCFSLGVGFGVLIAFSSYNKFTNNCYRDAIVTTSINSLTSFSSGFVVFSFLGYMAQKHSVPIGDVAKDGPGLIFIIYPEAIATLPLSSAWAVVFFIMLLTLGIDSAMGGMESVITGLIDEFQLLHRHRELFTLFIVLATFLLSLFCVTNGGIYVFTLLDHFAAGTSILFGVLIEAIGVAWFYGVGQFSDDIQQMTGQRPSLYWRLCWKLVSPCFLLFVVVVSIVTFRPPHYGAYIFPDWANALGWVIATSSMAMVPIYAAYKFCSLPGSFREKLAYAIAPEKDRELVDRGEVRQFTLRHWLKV
sigma receptor σ1, sequence (Q99720 whole entry): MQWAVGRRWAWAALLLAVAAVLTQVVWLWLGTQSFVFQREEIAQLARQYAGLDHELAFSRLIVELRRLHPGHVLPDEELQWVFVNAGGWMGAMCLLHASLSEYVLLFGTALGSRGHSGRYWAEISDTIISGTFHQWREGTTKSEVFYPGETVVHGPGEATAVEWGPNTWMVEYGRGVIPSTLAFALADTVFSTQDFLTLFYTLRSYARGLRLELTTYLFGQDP
norepinephrine transporter (NET), sequence (P23975 whole entry): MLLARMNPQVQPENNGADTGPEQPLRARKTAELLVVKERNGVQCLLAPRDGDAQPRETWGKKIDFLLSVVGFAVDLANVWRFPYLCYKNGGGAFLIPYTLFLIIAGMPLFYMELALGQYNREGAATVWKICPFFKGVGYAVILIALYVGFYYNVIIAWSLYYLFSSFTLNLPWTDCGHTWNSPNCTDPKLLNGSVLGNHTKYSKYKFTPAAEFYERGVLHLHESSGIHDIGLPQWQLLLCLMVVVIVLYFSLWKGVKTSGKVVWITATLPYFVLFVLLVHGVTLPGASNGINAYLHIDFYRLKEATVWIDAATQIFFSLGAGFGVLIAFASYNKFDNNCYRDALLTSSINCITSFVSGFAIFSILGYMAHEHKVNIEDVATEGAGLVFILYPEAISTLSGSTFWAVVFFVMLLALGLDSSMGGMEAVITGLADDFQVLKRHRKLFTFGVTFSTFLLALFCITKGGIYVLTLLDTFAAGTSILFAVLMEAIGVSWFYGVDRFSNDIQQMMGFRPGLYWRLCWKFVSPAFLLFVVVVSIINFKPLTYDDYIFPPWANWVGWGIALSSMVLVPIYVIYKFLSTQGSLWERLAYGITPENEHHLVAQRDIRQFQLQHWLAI
rA3AR, sequence (P28647 whole entry): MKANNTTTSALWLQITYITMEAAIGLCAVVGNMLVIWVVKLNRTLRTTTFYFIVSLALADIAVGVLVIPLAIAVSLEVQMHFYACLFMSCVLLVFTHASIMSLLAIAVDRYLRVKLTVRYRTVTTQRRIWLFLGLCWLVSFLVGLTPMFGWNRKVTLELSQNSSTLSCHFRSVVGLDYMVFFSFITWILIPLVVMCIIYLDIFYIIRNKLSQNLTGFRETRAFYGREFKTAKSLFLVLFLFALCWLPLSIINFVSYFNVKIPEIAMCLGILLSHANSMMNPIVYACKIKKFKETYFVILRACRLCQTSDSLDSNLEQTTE
histamine receptor H1, sequence (P35367 whole entry): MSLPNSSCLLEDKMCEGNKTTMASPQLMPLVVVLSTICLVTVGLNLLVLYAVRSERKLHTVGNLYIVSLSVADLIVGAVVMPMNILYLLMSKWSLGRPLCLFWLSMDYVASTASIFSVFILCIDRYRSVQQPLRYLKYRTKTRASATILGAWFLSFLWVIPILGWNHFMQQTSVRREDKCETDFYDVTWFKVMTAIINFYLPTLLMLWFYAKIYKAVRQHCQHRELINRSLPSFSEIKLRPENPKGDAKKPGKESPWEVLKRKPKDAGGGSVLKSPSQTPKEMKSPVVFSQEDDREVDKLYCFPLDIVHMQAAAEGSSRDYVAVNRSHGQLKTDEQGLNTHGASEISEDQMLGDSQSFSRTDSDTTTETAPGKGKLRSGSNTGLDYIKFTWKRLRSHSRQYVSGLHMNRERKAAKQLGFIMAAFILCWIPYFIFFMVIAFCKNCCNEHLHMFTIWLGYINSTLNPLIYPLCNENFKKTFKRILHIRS

SMILES: OC[C@H]1O[C@@H](n2cnc3c(NC(C4CCC4)C4CCC4)nc(Cl)nc32)[C@H](O)C1O (stereo in doubt) [Compound 12, (2R,3R,4R,5R)-2-(2-Chloro-6-((dicyclobutylmethyl)amino)-9H-purin-9-yl)-5-(hydroxymethyl)tetrahydrofuran-3,4-diol]
- Binding selectivity for mA1AR [1]: (1000) fold
- Emax at 10 µM [2]: 90 ± 19%
- Emax at 10 µM [3]: 63 ± 5%
- Tb (° C.) [4]: 35.5 ± 0.8 °C
- Activity (counts) [5]: 13.5 ± 3.5 counts
- human, % free [6]: 5.81 ± 0.39%
- mouse, % free [7]: 4.74 ± 0.67%
- rat, % free [8]: 4.64 ± 0.06%
- average immobility time relative to mice treated with 10 mg/kg of fluoxetine [9]: approximately ⅔
- average immobility time relative to the control group of mice [9]: approximately ½
- initial amount present in simulated gastric fluid [10]: 100%

SMILES: O[C@@H]1[C@H](O)[C@@H](CCl)O[C@H]1n1cnc2c(NC3CC4CCC3C4)ncnc21 (some centres unmarked) [Compound 3, reference compound]
- Ki [1]: 0.00014 µM
- Ki [11]: 0.00034 µM
- Ki [12]: > 10 µM
- Ki [13]: 0.477 µM
- Ki [14]: 0.915 ± 0.299 µM
- Ki [15]: 0.424 µM
- Ki [16]: 0.282 µM

SMILES: OC[C@H]1O[C@@H](n2cnc3c(NC(C4CC4)C4CC4)ncnc32)[C@H](O)[C@@H]1O [Compound 8]
- Ki [17]: 0.00085 ± 0.00027 µM
- Ki [12]: 1.47 ± 0.38 µM
- Ki [13]: 1.37 µM
- Ki [14]: 0.0413 ± 0.0053 µM

SMILES: OC[C@H]1O[C@@H](n2cnc3c(NC(C4CCC4)C4CCC4)ncnc32)[C@H](O)[C@@H]1O [Compound 9, (2R,3R,4R,5R)-2-(6-((Dicyclobutylmethyl)amino)-9H-purin-9-yl)-5-(hydroxymethyl)tetrahydrofuran-3,4-diol]
- Ki [17]: 0.00214 ± 0.00052 µM
- Ki [12]: 3.55 ± 0.44 µM
- Ki [15]: 0.897 µM
- Ki [18]: 1.78 µM
- Ki [19]: 4.82 µM

SMILES: Nc1ncnc2c1ncn2[C@@H]1O[C@H](C(=O)NC2CC2)[C@@H](O)[C@H]1O [Compound 17, reference compound]
- Ki [17]: 0.0019 µM
- Ki [12]: 0.05 ± 0.01 µM
- Ki ([14]; (h), Ki, read-out: A3AR % inhibition or Ki): 0.18 ± 0.05 µM
- Ki [20]: 4.35 µM
- Ki [21]: 7.88 µM

SMILES: OC[C@@]12C[C@@H]1[C@@H](n1cnc3c(NC(C4CCC4)C4CCC4)ncnc31)[C@H](O)[C@@H]2O [Compound 24, (1R,2R,3S,4R,5S)-4-(6-((Dicyclobutylmethyl)amino)-9H-purin-9-yl)-1-(hydroxymethyl)bicyclo[3.1.0]hexane-2,3-diol]
- Ki [17]: 0.0227 ± 0.003 µM
- Ki [1]: 0.00053 µM
- Binding selectivity for mA1AR [1]: (1730) fold
- inhibition at 10 µM [12]: 34 ± 1%
- inhibition at 10 µM ([14]; read-out: A3AR % inhibition or Ki): 51 ± 6%
- Ki [15]: 0.918 µM
- Ki [22]: 1.79 µM
- Ki [20]: 0.753 µM
- Ki [23]: 1.32 µM
- Ki [24]: 4.08 µM
- Ki [25]: 0.214 µM
- Emax at 10 µM [2]: 97 ± 11%
- Emax at 10 µM [3]: 92 ± 3%
- Tb (° C.) [4]: 36.2 ± 0.4 °C
- Activity (counts) [5]: 18.1 ± 6.8 counts
- human, % free [6]: 14.6 ± 1.3%
- mouse, % free [7]: 27.5 ± 1.7%
- rat, % free [8]: 17.8 ± 1.2%
